Data from patent US6649568B2, “Brassinosteroid biosynthesis inhibitor” (Riken, priority 2000, dated 2003).

Columns and labels:
[1] = tested on: brassinosteroid biosynthesis; settings: reported in Japanese Patent Application No. 10-227939; cited from earlier work
[2] = tested on: elongation of cress lower hypocotyl; assay: Inhibition of elongation of cress lower hypocotyl, with rescue by brassinolide or gibberellin; assay type: in vivo; settings: FIG. 2
Method: Surfaces of cress seeds purchased were sterilized with 1% NaOCl solution for 20 minutes and washed 5 times with distilled water. The resulting cress seeds were sown on 1% agar-solidified medium (containing 0.5×Murashige and Skoog salts and 1.5% sucrose in Agripot (Kirin Brew Co., Tokyo)). The plants was grown in a growth chamber kept at 25[…] under a cycle of 16 hour light (240 μEm-2s-1) and 8 hour dark conditions. […] The inhibitory effect of the compound of the present invention against elongation of cress lower hypocotyl was suppressed by addition of blassinolide, whilst not suppressed by addition of gibberellin (FIG. 1).

SMILES | inhibitory action against the brassinosteroid biosynthesis [1] | inhibitory action against brassinosteroid biosynthesis, comparison with Brz91 [2]
CC(O)(c1ccccc1)C(Cc1ccc(Cl)cc1)c1nc[nH]n1 (centres unmarked) [Brz91, 4-(4-chlorophenyl)-2-phenyl-3-(1,2,4-triazolyl)butan-2-ol] | had the desired inhibitory action | 
C=CCC(O)(c1ccccc1)C(Cc1ccc(Cl)cc1)n1cncn1 (centres unmarked) [Brz2001, 6-(4-Chlorophenyl)-4-phenyl-5-(1,2,4-triazoyl)hexen-1-en-4-ol] |  | inhibitory action
